Like-named read-outs stand apart in the source and are kept apart here. Marks after values point to notes of the source that are not given here.
Assays:
HL-60 cells [1] = assay: Leukemic cell uptake of free versus DcNP-associated drug, HL-60; assay type: cell-based, human; settings: up to 4 hours
Procedure: (§1) FIGS. 13A-13D are a series of graphs showing the intracellular drug concentrations following incubation with free or DcNP-bound drug. Three leukemic cell lines were incubated with either free or DcNP-bound drug over four hours, and intracellular drug concentration was measured via LC-MS/MS. Both free drugs show relatively little drug uptake compared to the DcNP formulation. Free drug concentrations are roughly a quarter of the DcNP drug concentrations.
(§2) To quantify drug concentrations (both DcNP-bound and free drug), an extraction protocol was established to quantify venetoclax and zanubrutinib. In short, drug was solubilized by diluting the sample into ethyl acetate, liberating it from either the DcNP lipid matrix, mouse plasma, or both. Following centrifugation to remove organic material, the samples were dried with nitrogen gas, reconstituted in acetonitrile, and loaded onto an LC-MS/MS. Drug concentrations were quantified by comparing sample data with standard curves prepared from untreated mouse plasma spiked with known amounts of drug.
(§3) Separations were carried out on a Synergi column (100×2.0 mm) (Phenomenex, Torrance, USA). A C8 guard column (4.0×2.0 mm) was used (Phenomenex, USA). The separations were done under ambient temperature, and the flow rate was set to 0.55 ml/min. The mobile phase for the separations consisted of buffers A (water with 20 mM ammonium acetate) and B (acetonitrile). The single mobile phase ran for five minutes, and it consisted of 25% buffer A and 75% buffer B.
(§4) HL-60 cells were cultured, counted, and aliquoted into multiple 1.5 mL Eppendorf tubes. A free drug solution of ABT-199 and BGB-3111 (1:1 w/w) was added to half of the tubes, while a DcNP solution of identical drug concentrations was added to the second half of tubes. The cells in the tubes were then allowed to incubate normally. At preselected time points, one incubation tube from each group was removed from the incubator, and the cells inside were washed twice with media to remove external drug and DcNP's. Cells were then lysed with acetonitrile, and drug concentrations were quantified according to the aforementioned extraction and LC-MS/MS protocol.

K-562 cells [2] = assay: AlamarBlue cell growth inhibition, K-562; assay type: cell-based; settings: Homo sapiens; for EC50: 120 h, K562 (Bcl-2 −, BTK +), 5 days, read-out: Inhibitory effects (EC50); for IC50: K562, 120 h, K-562, five days, read-out: IC50 (sensitivity)
Procedure: (§5) K-562 cells (human leukemia) were purchased from ATCC (Manassas, USA). Additional human leukemic cell lines, MOLT-4 and HL-60, were a generous gift from Carrie Cummings at Fred Hutchinson Cancer Research Center (Seattle, USA). All cells were cultured in Gibco RPMI medium 1640 with Gibco 1% 100×Antibiotic-Antimycotic (Thermo Fisher Scientific, Waltham, USA) and 10% fetal bovine serum. Cells were selected for their different protein expression levels of Bruton's Tyrosine Kinase (BTK) and B Cell Lymphoma 2 (Bcl-2); HL-60 cells express both BTK and Bcl-2, while K-562 and MOLT-4 cells only express BTK and Bcl-2, respectively.
(§6) Each cell line was seeded separately into Costar® Black 96-well Assay Plates (Corning USA). Within 1 hr, varying concentrations of individual free drug (ABT-199 or BGB-3111), a combination of both free drugs (w/w 1:1), or a combination of drugs within DcNP's were added to the cells. Following a 5-day incubation, growth of treated cells was compared to untreated cells, quantified using an AlamarBlue Cell Viability Assay (Thermo Fisher Scientific, Waltham, USA) with a PerkinElmer 1420 Multilabel Counter plate reader. Prism graphing software (GraphPad) was used to analyze the absorbance data and to assess relative cell growth.
(§7) The effects of DcNP formulation on the effectiveness of ABT-199 and BGB-3111 to inhibit cells that express Bcl-2 and BTK targets is shown in Table 6. Three immortalized human cell lines were selected based on their expression of Bcl-2 (B-cell lymphoma 2; target of venetoclax) and BTK (Bruton's tyrosine kinase; target of zanubrutinib). Cell lines were seeded in 96-well plates at 75,000 cells per well. In separate sets of wells, venetoclax and zanubrutinib were incubated with the cells for 5 days individually as free drug, together as free drug, and together as the drug combination nanoformulation. An AlamarBlue assay was performed to determine relative inhibition of cell growth due to drug presence.

MOLT-4 cells = assay: AlamarBlue cell growth inhibition, MOLT-4; assay type: cell-based; settings: Homo sapiens, 120 h; for IC50: MOLT-4, five days, read-out: IC50 (sensitivity); for EC50: Molt-4 (Bcl-2 +, BTK −), 5 days, read-out: Inhibitory effects (EC50)
Procedure: as §5, §6, §7

[3] = at 25° C.; cited from earlier work
HL-60 cells [4] = assay: AlamarBlue cell growth inhibition, HL-60; assay type: cell-based; settings: Homo sapiens; for IC50: 120 h, HL-60, five days; for EC50: HL-60, 120 h, HL60 (Bcl-2 +, BTK +), 5 days, read-out: Inhibitory effects (EC50)
Procedure: as §5, §6, §7

K-562 cells [5] = assay: Leukemic cell uptake of free versus DcNP-associated drug, K-562; assay type: cell-based, human
Procedure: as §1, §2, §3, §4

[6] = Pharmacokinetic study of GT DcNP vs CrEL drug combination in mice (Example 1); assay type: in vivo, BALB/c mice; settings: GT 50/5 mg/kg IV; for AUC(0-t) / Cmax / t1/2apparent: plasma; for AUC(0-t): iv
Procedure: Mice were administered with either a CrEL drug combination or GT DcNP intravenously with doses of 50/5 mg/kg GT. […] Each group had three animals and each animal was bled once only. Retro-orbital blood collection in this study was a terminal procedure and animals were under anesthesia at the time of bleeding. After blood collection, mice were euthanized by CO2 overdose followed by cervical dislocation as the secondary method of euthanasia. Drugs in plasma were extracted and analyzed by LC-MS/MS as described below.
A liquid-liquid extraction was used to extract drugs from plasma or tissue homogenates. […] Samples were spiked by internal standards (see below) followed by the addition of acetonitrile. […] The dried samples were reconstituted in 20% methanol and 80% water in 50 μL.
Drugs were quantified by a Shimadzu HPLC system coupled to a 3200 QTRAP mass spectrometer (Applied Biosystems, Grand Island, N.Y.). The HPLC system consisted of two Shimadzu LC-20A pumps, a DGU-20A5 degasser, and a Shimadzu SIL-20AC HT autosampler. The mass spectrometer was equipped with an electrospray ionization (ESI) TurbolonSpray source. The system was operated with Analyst software, version 1.5.2 (ABSciex, Framingham, Mass.).
Chromatographic separation of drugs was achieved using a Synergi column (100×2.0 mm; 4-μm particle size) with an inline C8 guard column (4.0×2.0 mm) (Phenomenex, Torrance, Calif.). An ammonium acetate buffer/reagent alcohol gradient was used to separate components. Analytes were monitored using multiple-reaction monitoring for positive ions.

[7] = HL-60, incubation with free drug (1:1 w/w)
[8] = K-562, incubation with free drug
[9] = female, BALB/c, mouse, given in CrEL drug dosage form
[10] = female, BALB/c, mouse, given in DcNP dosage form

Structure (SMILES) | peak intracellular drug concentration (HL-60 cells [1]; HL-60, incubation with DcNP's) [ng/million cells] | peak intracellular drug concentration (HL-60 cells [1]; [7]) [ng/million cells] | EC50 (K-562 cells [2]) [µg/mL] | IC50 (K-562 cells [2]) [µg/mL] | IC50 (MOLT-4 cells) [µg/mL] | EC50 (MOLT-4 cells) [µg/mL] | Water solubility [3] [µg/mL] | EC50 (HL-60 cells [4]) [µg/mL] | peak intracellular drug concentration (K-562 cells [5]; K-562, incubation with DcNP's) [ng/million cells] | peak intracellular drug concentration (K-562 cells [5]; [8]) [ng/million cells] | AUC(0-t) [6, 9] [ng·h/mL] | AUC(0-t) [6, 10] [ng·h/mL] | t1/2apparent ([6]; given in CrEL drug dosage form) [h] | Cmax ([6]; given in DcNP dosage form) [µg/mL] | t1/2apparent ([6]; given in DcNP dosage form) [h] | also measured
CC1(C)CCC(CN2CCN(c3ccc(C(=O)NS(=O)(=O)c4ccc(NCC5CCOCC5)c([N+](=O)[O-])c4)c(Oc4cnc5[nH]ccc5c4)c3)CC2)=C(c2ccc(Cl)cc2)C1 [Venetoclax, 4-[4-[[2-(4-chlorophenyl)-4,4-dimethylcyclohexen-1-yl]methyl]piperazin-1-yl]-N-[3-nitro-4-(oxan-4-ylmethylamino)phenyl]sulfonyl-2-(1H-pyrrolo[2,3-b]pyridin-5-yloxy)benzamide] | 674 | 192 | 16 | 15.9 | 1.96 | 2 | 0.933 | 0.0019 | 647 | 192 | – | – | – | – | – | IC50 (HL-60 cells [4]; read-out: IC50): 0.00192 µg/mL
Nc1ccn([C@@H]2O[C@H](CO)[C@@H](O)C2(F)F)c(=O)n1 [Gemcitabine, 4-amino-1-[(2R,4R,5R)-3,3-difluoro-4-hydroxy-5-(hydroxymethyl)oxolan-2-yl]pyrimidin-2-one] | – | – | – | – | – | – | – | – | – | – | 15300 | 868000 | 1.60 | 181.4 | 13.72 | increase in Cmax, GT DcNP compared to CrEL [6]: ~10%; Cmax ([6]; given in CrEL drug dosage form): 165.12^b μg/mL
C=CC(=O)N1CCC([C@@H]2CCNc3c(C(N)=O)c(-c4ccc(Oc5ccccc5)cc4)nn32)CC1 [Zanubrutinib, (7S)-2-(4-phenoxyphenyl)-7-(1-prop-2-enoylpiperidin-4-yl)-4,5,6,7-tetrahydropyrazolo[1,5-a]pyrimidine-3-carboxamide] | 256 | 69 | 8.4 | 8.3 | 4 | 4 | 10.3 | 10 | 647 | 109 | – | – | – | – | – | IC50 (HL-60 cells [4]; read-out: IC50 (sensitivity)): 10.3 µg/mL
CC(=O)O[C@H]1C(=O)[C@@]2(C)[C@H]([C@H](OC(=O)c3ccccc3)[C@]3(O)C[C@H](OC(=O)[C@H](O)[C@@H](NC(=O)c4ccccc4)c4ccccc4)C(C)=C1C3(C)C)[C@]1(OC(C)=O)CO[C@@H]1C[C@@H]2O [Paclitaxel, [(1S,2S,3R,4S,7R,9S,10S,12R,15S)-4,12-diacetyloxy-15-[(2R,3S)-3-benzamido-2-hydroxy-3-phenylpropanoyl]oxy-1,9-dihydroxy-10,14,17,17-tetramethyl-11-oxo-6-oxatetracyclo[11.3.1.0^3,10.0^4,7]heptadec-13-en-2-yl] benzoate] | – | – | – | – | – | – | – | – | – | – | 2490 | 9810 | 1.81 | 13.9 | 1.97 | decrease in Cmax, GT DcNP compared to CrEL [6]: ~21%; Cmax ([6]; female, BALB/c, mouse, given in CrEL drug dosage form, read-out: Cmax): 17.7 µg/mL
